Several values for one entry are separate records, joined by “and”; a condition that tells them apart may be missing. Identical values can stand only once. Entries after “also recorded” stand apart in the source; their conditions may differ.
Columns and labels:
male Sprague-Dawley rats = assay: Recovery of testosterone levels after 3-day oral dosing in rats; format: in vivo, rat; settings: 1 mg/kg oral for three days; no recovery
Text: Thirty-five (35) male Sprague-Dawley rats weighing approximately 200 g were maintained on a 12-h light/dark cycle with food (2016 Teklad Global 16% Protein Rodent Diet, Harlan, Madison, Wis.) and water available ad libitum. The animal protocol was reviewed and approved by the Institutional Animal Care and Use Committee of the University of Tennessee.
The test article for this study was weighed and dissolved in PEG 300 (100%) (Acros Organics, NJ) to prepare the appropriate dose formulations. Animals were randomly assigned to one of the […] treatment groups (n=5 animals/group). The animals were housed in groups of 2 to 3 animals per cage. Group 1 was sacrificed at the initiation of the study (Day 1) for determination of baseline testosterone levels in intact animals. Groups 2-7 received daily doses of 1, 3, or 30 mg/kg via oral gavage (˜200 uL) for three days. Groups 2, 3, and 4 were sacrificed on Day 4 to measure maximal testosterone suppression. Groups 5, 6, and 7 were allowed to recover for 14 days with a drug free washout period.

[1] = system: men with castration resistant prostate cancer (CRPC); assay: Study 3: Compound IV 2000 mg daily in men with castration resistant prostate cancer maintained on ADT; format: in vivo, human; settings: for Percentage of treated patients already on ADT (ITT population) below the free T cutoff of 0.5 pg/ml: Study 3, CRPC
Procedure: Men with CRPC (n=9) received 2000 mg Compound IV daily. The primary endpoint of the study was the proportion of subjects with a greater than or equal to 50% reduction in prostate specific antigen (PSA) from Day 1. Secondary endpoints included serum free T and SHBG which together with PSA were assessed at days 1, 15, 30, 60 and 90. Serum concentrations of total T, free T, SHBG and PSA were determined at baseline and during treatment.
A study (Study 3) was conducted to assess the effects of Compound IV on serum PSA progression in men with castration resistant prostate cancer who have been effectively treated with ADT and at the time of enrollment into this study have shown serum PSA progression. This study consisted of one dose arm with 9 subjects.
The subjects were 12 male subjects over age 18 years with castration resistant prostate cancer, who were being treated with androgen deprivation therapy (chemical or surgical castration) for at least 6 months, that have serum PSA >2 ng/mL or […] a 25% increase above the nadir after the initiation of androgen deprivation therapy (ADT) at study enrollment. The subjects were maintained on androgen deprivation therapy throughout the study.
The dose selected for the study was 2000 mg Compound IV. Four Compound IV tablets, 500 mg (2000 mg dose) were orally administered daily. […] Subjects received 2000 mg of Compound IV daily by mouth until study termination. Dosing was to be continued until their serum PSA had increased at least 25% and 2 ng/mL from the nadir at two successive sample times (approximately 30 days apart) after initiation of treatment with Compound IV. The prostate cancer working group (PCWG) definition of PSA progression was used (serum PSA has increased at least 25% and 2 ng/mL above the nadir after initiation of treatment with Compound IV on two successive sample times).
Assessments of serum PSA concentration were made at baseline and on Days 15, 30, and 60 (only 1 patient made it this far before study was terminated).
The proportion of subjects with a 50% decline from baseline in serum PSA (confirmed by a second PSA assessment at least one week later).

liver X receptor (LXR) = assay: Nuclear receptor cross-reactivity transcriptional activation assay; format: cell-based, human; settings: agonist and antagonist modes
Text: Compound IV was screened for cross-reactivity against rat isoforms of glucocorticoid receptor (GR), mineralocorticoids receptor (MR), progesterone receptor (PR), androgen receptor (AR) and human isoforms of farnesoid X receptor (FXR), liver X receptor (LXR), peroxisome proliferator-activated receptors (PPAR-α and PPAR-γ), and retinoid X receptor (RXR-α) in both agonist and antagonist modes in transcriptional activation assays.

human males = assay: Multiple dose study in human males (100, 300, 600, 1000 mg; days 1-11); format: in vivo
Human 17β-HSD5 = molecular target: T1, Human 17β-HSD5 (Homo sapiens, UniProt P42330); assay: 17β-HSD5 enzyme activity (14C androstenedione to testosterone, TLC); format: biochemical; settings: purified protein, NADPH (FIG. 3)
T1 construct: GST (inferred from pGEX 4t1 vector; own knowledge) (N); made in house

[2] = system: prostate epithelial cancer cells; assay: Proliferation of prostate epithelial cancer cells in vitro; format: cell-based

T1 sequence (P42330 whole entry): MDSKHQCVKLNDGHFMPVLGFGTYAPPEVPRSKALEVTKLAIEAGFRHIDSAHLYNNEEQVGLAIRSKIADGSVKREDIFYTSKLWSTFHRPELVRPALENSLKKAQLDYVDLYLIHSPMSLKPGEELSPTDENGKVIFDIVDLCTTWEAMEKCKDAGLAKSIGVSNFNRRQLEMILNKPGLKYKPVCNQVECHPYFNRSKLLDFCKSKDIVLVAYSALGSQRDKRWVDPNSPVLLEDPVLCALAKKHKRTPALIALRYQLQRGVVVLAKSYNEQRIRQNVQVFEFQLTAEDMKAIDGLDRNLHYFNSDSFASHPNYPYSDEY

SMILES: O=C(c1ccc(O)c(F)c1)N(c1ccc(O)cc1)c1ccc(F)cc1 [Compound IV, 3-fluoro-N-(4-fluorophenyl)-4-hydroxy-N-(4-hydroxyphenyl)benzamide]
- Serum testosterone after dosing (male Sprague-Dawley rats): No significant suppression
- Free T reductions and PSA decreases from baseline ([1]; 15 days, men maintained on ADT with LHRH agonists alone): in all of the men
- Effect on serum total T levels ([1]; CRPC patients on ADT): did not further reduce
- Reduction in % FreeT ([1]; Day 15): greater than 50%
- Percentage of treated patients already on ADT (ITT population) below the free T cutoff of 0.5 pg/ml ([1]; 15 days on therapy): 85.7%
- Percentage of treated patients already on ADT (ITT population) below the free T cutoff of 0.5 pg/ml ([1]; 30 days on therapy): 66.7%
- Percentage of treated patients already on ADT (ITT population) below the free T cutoff of 0.5 pg/ml ([1]; 60 days on therapy): 100%
- Patients with greater than 50% reduction in PSA ([1]; after two weeks): 3 of 7
- Men that reached free T below 0.5 pg/mL ([1]; day 15): 85.7%
- Men that reached free T below 0.5 pg/mL ([1]; day 30): 66.7%
- Men that reached free T below 0.5 pg/mL ([1]; day 60): 100%
- Subjects with a reduction in serum PSA from baseline to Day 15 ([1]; seven evaluable subjects): All seven
- Subjects with >50% reduction in serum PSA ([1]; subjects with at least 30 days of exposure): all three and 2 of 3
- Agonist or antagonist activity at LXR (liver X receptor (LXR)): did not display any agonist or antagonist activity
- Change of PSA level (human males; 10 mg): No changes noted
- Change of PSA level (human males; 30 mg): No changes noted
- Decrease of PSA level (human males; 100 mg): 9.2%
- Decrease of free testosterone level (human males; 100 mg): 17.0%
- Effect on 17β-HSD5 enzyme activity (Human 17β-HSD5): partial inhibitory effect
- Proliferation of prostate epithelial cancer cells [2]: does not increase proliferation; also recorded: did not increase proliferation

Source: patent US9624161B2 (priority 2009, dated 2017)
